Publication PMC3547732 (Chemistry Central Journal, 2012)

Tests used:
[1] = Enthalpy of solution by microreaction calorimetry; format: physicochemical; settings: for Molar enthalpy of solution, Methanol ΔsolH (methanol) / Molar enthalpy of solution of Atorvastatin Calcium (ATC) (ΔsolH^1) in the solvent of the solvate / Molar enthalpy of solution in its own solvent, Solvates (ΔsolH^2): 25°C; for Molar enthalpy of solution in its own solvent, Solvates (ΔsolH^2): each solvate in its own solvent of solvation; for Enthalpy of solvation ΔsolvH: calculated by equation 3 from enthalpies of solution of drug and solvate in the solvent of solvation
Experimental: Molar enthalpy of solution (ΔHsol) was determined in phosphate buffer (pH8) as well as in methanol.
In order to determine the enthalpy associated with the solvation process the enthalpy of solution of a particular solvate was determined in its own solvent.
(3) ΔsolyH=ΔsolH^1−ΔsolH^2
Calorimetric studies were performed on Microreaction calorimeter obtained from Thermal Hazards Technology, UK. Two different solvents, viz, the phosphate buffer (pH 2) and methanol were used to determine the enthalpy of solution and the measurements were performed at 25°C. The size of sample used in this study ranged from 10 to 20 mg and was weighed (Sartorius Model CP225D) into a cylindrical glass tube covered with parafilm on one side. This cylindrical tube was submerged into the ampoule containing the solvent. A plunger with a cap was put from the open end of the tube. The same solvent was put into the reference ampoule. These were put into the sample and reference holes until both rest on the base of the holes. The apparatus was maintained at constant temperature at 25°C (±0.0005°C). The parafilm was shattered mechanically by means of plunger.

[2] = tested on: Triton induced hyperlipidemia; assay: Hypolipidemic activity in Triton induced hyperlipidemia in rats; format: in vivo, male Wistar rats; settings: for lipid lowering in triton treated rats (total cholesterol and TG), in words: 30 mg/kg oral gavage; for Total Cholesterol / Triglyceride: Triton treated rats, 30 mg/kg oral gavage 2 h before Triton i.p., plasma 18 h after triton injection
Experimental: The rats were housed under optimal laboratory conditions, maintained on 12 h light and dark cycle and had free access to food (Hindustan Lever Products, Kolkata, India) and water. Animals were acclimatized to laboratory conditions before the tests. All experiments were carried out between 0900 and 1700 h. The experimental protocols were approved by the Institutional Animal Ethics Committee and conducted according to the Indian National Science Academy guidelines for the use and care of animals. Fifty five male Wistar rats were divided into the following 11 groups containing 5 animals in each group: Atrovastain and various solvates were freshly suspended in 0.5% carboxymethyl cellulose and administered by oral gavage. Two hours later, all groups except control animals received intraperitonial injection of Triton (100 mg/kg). Eighteen hours after triton injection, blood was collected from tail vein. Plasma was separated and stored at −20°C for further biochemical analysis. Total cholesterol and triglyceride were analyzed in plasma samples using diagnostic kits as per manufacturer instructions.

[3] = Enthalpy of solution by microreaction calorimetry; format: physicochemical; settings: 25°C
[4] = Desolvation of solvates by DSC and TGA; format: physicochemical; settings: for Desolvation temperature: DSC desolvation endotherm maximum, 10°C/min; for Enthalpy of desolvation, ΔdesolvH calculated from equation 4: calculated from enthalpies of solution, heat capacities and enthalpy of vapourization; for Enthalpy of desolvation per mole of solvent (binding energy): equation 1 from DSC desolvation enthalpy and TGA mass loss
Excerpt: The desolvation temperatures account for the stability of solvates as the desolvation temperature in all these forms is much higher than the boiling point of the corresponding solvent. The quantitative estimate of the stability of these solvates is established by determining the binding energy for the solvents in all the solvates using equation 1 where the percent mass loss measured over the TG desolvation step of each solvate (ΔmS%) was related to the enthalpy change calculated over the corresponding DSC desolvation endotherm (ΔHSexp).
(1) ΔHS=ΔHSexp×100Δms%×Ms
where ΔHS (J mol^-1) is the enthalpy of desolvation (or binding energy) per mole of the bound solvent, MS is the molecular mass of the solvent.
(4) ΔdesolyH=ΔsolnH^2−ΔsolnH^1−ΔCPTdesoly−25+1/2ΔyapH
. A mass between 2–8 mg was taken into the aluminium pan, covered with lid and sealed. DSC curves were obtained under a nitrogen purge of 50 mL per minute at a heating rate of 10°C per minute with the temperature range from 50-350°C.
Loss of solvent from the samples was characterized by TGA obtained by TA Instruments-Waters LLC, USA. TGA traces were recorded at heating rates of 10°C per minute under a nitrogen purge of 50 ml per minute. Samples with masses between 1–10 mg were analyzed using platinum pan. Mass loss (%) was calculated based on the mass of the original sample.

SMILES | Molar enthalpy of solution, Methanol ΔsolH (methanol) [1] [kJ/mol] | lipid lowering in triton treated rats (total cholesterol and TG), in words [2] | Total Cholesterol [2] [mg/dL] | Triglyceride [2] [mg/dL] | Molar enthalpy of solution, Phosphate buffer (pH8) ΔsolH [3] [kJ mol^-1] | Enthalpy of desolvation, ΔdesolvH calculated from equation 4 [4] [kJ/mol] | Enthalpy of desolvation per mole of solvent (binding energy) [4] [kJ/mol] | Enthalpy of desolvation, ΔdesolvH from DSC [4] [kJ/mol] | Molar enthalpy of solution in its own solvent, Solvates (ΔsolH^2) [1] [kJ/mol] | Enthalpy of solvation ΔsolvH [1] [kJ/mol] | further results
CC(C)c1c(C(=O)Nc2ccccc2)c(-c2ccccc2)c(-c2ccc(F)cc2)n1CC[C@@H](O)C[C@@H](O)CC(=O)O [ATC, Atorvastatin calcium, reference compound] | 19.11 | reduced lipid profile | 198 | 169 | 21.89 | – | – | – | – | – | Molar enthalpy of solution of Atorvastatin Calcium (ATC) (ΔsolH^1) in the solvent of the solvate ([1]; solvent of Solvate I (isopropyl alcohol)): -13.52 kJ/mol; Molar enthalpy of solution of Atorvastatin Calcium (ATC) (ΔsolH^1) in the solvent of the solvate ([1]; solvent of Solvate II (THF)): 10.85 kJ/mol; Molar enthalpy of solution of Atorvastatin Calcium (ATC) (ΔsolH^1) in the solvent of the solvate ([1]; solvent of Solvate III (ethanol)): 32.06 kJ/mol; Molar enthalpy of solution of Atorvastatin Calcium (ATC) (ΔsolH^1) in the solvent of the solvate ([1]; solvent of Solvate IV (t-butanol)): 34.85 kJ/mol; Molar enthalpy of solution of Atorvastatin Calcium (ATC) (ΔsolH^1) in the solvent of the solvate ([1]; solvent of Solvate V (methanol)): 16.35 kJ/mol; Molar enthalpy of solution of Atorvastatin Calcium (ATC) (ΔsolH^1) in the solvent of the solvate ([1]; solvent of Solvate VI (acetone + ethanol)): 41.20 kJ/mol; Molar enthalpy of solution of Atorvastatin Calcium (ATC) (ΔsolH^1) in the solvent of the solvate ([1]; solvent of Solvate VII (ethanol + water)): 112.49 kJ/mol; Molar enthalpy of solution of Atorvastatin Calcium (ATC) (ΔsolH^1) in the solvent of the solvate ([1]; solvent of Solvate VIII (1-butanol)): 13.36 kJ/mol
CC(C)c1c(C(=O)Nc2ccccc2)c(-c2ccccc2)c(-c2ccc(F)cc2)n1CC[C@@H](O)C[C@@H](O)CC(=O)[O-].CC(C)c1c(C(=O)Nc2ccccc2)c(-c2ccccc2)c(-c2ccc(F)cc2)n1CC[C@@H](O)C[C@@H](O)CC(=O)[O-].CCO.[Ca+2] [Solvate III] | 3.05 | – | 203 | 172 | 5.46 | 34.39 | 63.34 | 44.69 | -7.61 | – | Desolvation temperature ([4]; listed as III): 90(±8) °C; Desolvation temperature ([4]; listed as Solvate- III): 90.42 °C
C1CCOC1.CC(C)c1c(C(=O)Nc2ccccc2)c(-c2ccccc2)c(-c2ccc(F)cc2)n1CC[C@@H](O)C[C@@H](O)CC(=O)[O-].CC(C)c1c(C(=O)Nc2ccccc2)c(-c2ccccc2)c(-c2ccc(F)cc2)n1CC[C@@H](O)C[C@@H](O)CC(=O)[O-].[Ca+2] [Solvate II] | 9.95 | – | 201 | 170 | 14.31 | 57.17 | 55.17 | 51.47 | -11.32 | -22.17 | Desolvation temperature ([4]; listed as Solvate- II): 98.89 °C; Desolvation temperature ([4]; listed as solvate II): 90(±8) °C
CC(C)(C)O.CC(C)c1c(C(=O)Nc2ccccc2)c(-c2ccccc2)c(-c2ccc(F)cc2)n1CC[C@@H](O)C[C@@H](O)CC(=O)[O-].CC(C)c1c(C(=O)Nc2ccccc2)c(-c2ccccc2)c(-c2ccc(F)cc2)n1CC[C@@H](O)C[C@@H](O)CC(=O)[O-].CC(C)c1c(C(=O)Nc2ccccc2)c(-c2ccccc2)c(-c2ccc(F)cc2)n1CC[C@@H](O)C[C@@H](O)CC(=O)[O-].CC(C)c1c(C(=O)Nc2ccccc2)c(-c2ccccc2)c(-c2ccc(F)cc2)n1CC[C@@H](O)C[C@@H](O)CC(=O)[O-].[Ca+2].[Ca+2] [Solvate IV] | 5.45 | – | 204 | 168 | 11.50 | 78.31 | 136.63 | 78.85 | 3.16 | -31.69 | Desolvation temperature ([4]; listed as IV): 90(±8) °C; Desolvation temperature ([4]; listed as Solvate- IV): 83. 34 °C
CC(C)O.CC(C)c1c(C(=O)Nc2ccccc2)c(-c2ccccc2)c(-c2ccc(F)cc2)n1CC[C@@H](O)C[C@@H](O)CC(=O)[O-].CC(C)c1c(C(=O)Nc2ccccc2)c(-c2ccccc2)c(-c2ccc(F)cc2)n1CC[C@@H](O)C[C@@H](O)CC(=O)[O-].CC(C)c1c(C(=O)Nc2ccccc2)c(-c2ccccc2)c(-c2ccc(F)cc2)n1CC[C@@H](O)C[C@@H](O)CC(=O)[O-].CC(C)c1c(C(=O)Nc2ccccc2)c(-c2ccccc2)c(-c2ccc(F)cc2)n1CC[C@@H](O)C[C@@H](O)CC(=O)[O-].[Ca+2].[Ca+2] [Solvate I] | 1.15 | performed better than pure ATC | 161 | 143 | 2.51 | 25.93 | 141.41 | 24.20 | -24.45 | -10.93 | Desolvation temperature [4]: 84.71 °C
CC(C)c1c(C(=O)Nc2ccccc2)c(-c2ccccc2)c(-c2ccc(F)cc2)n1CC[C@@H](O)C[C@@H](O)CC(=O)[O-].CC(C)c1c(C(=O)Nc2ccccc2)c(-c2ccccc2)c(-c2ccc(F)cc2)n1CC[C@@H](O)C[C@@H](O)CC(=O)[O-].CCCCO.[Ca+2] [Solvate VIII] | 0.57 | performed better than pure ATC | 152 | 140 | – | 31.81 | 61.46 | 28.56 | -4.6 | -17.96 | Desolvation temperature [4]: 119. 5 °C; Molar enthalpy of solution, Phosphate buffer (pH8) ΔsolH ([3]; listed as Solvate- VIII): 1.17 kJ mol^-1; Molar enthalpy of solution, Phosphate buffer (pH8) ΔsolH ([3]; listed as solvate-VIII): 2.475 kJ mol^-1
CC(C)c1c(C(=O)Nc2ccccc2)c(-c2ccccc2)c(-c2ccc(F)cc2)n1CC[C@@H](O)C[C@@H](O)CC(=O)[O-].CC(C)c1c(C(=O)Nc2ccccc2)c(-c2ccccc2)c(-c2ccc(F)cc2)n1CC[C@@H](O)C[C@@H](O)CC(=O)[O-].CC(C)c1c(C(=O)Nc2ccccc2)c(-c2ccccc2)c(-c2ccc(F)cc2)n1CC[C@@H](O)C[C@@H](O)CC(=O)[O-].CC(C)c1c(C(=O)Nc2ccccc2)c(-c2ccccc2)c(-c2ccc(F)cc2)n1CC[C@@H](O)C[C@@H](O)CC(=O)[O-].CCO.O.O.[Ca+2].[Ca+2] [Solvate VII] | 12.7 | – | 202 | 167 | 16.98 | 103.96 | 106.61 | 104.64 | -4.25 | -116.74 | Desolvation temperature ([4]; listed as Solvate-VII): 105.13 °C; Desolvation temperature ([4]; listed as VII): 105.1 °C
